Reference: PubChem BioAssay (NCI)
Several values for one entry are separate records, joined by “and”; a condition that tells them apart may be missing. Equal values may be shown once.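 Briefly, cells in 96-well plates were exposed to five compound concentrations for 48 h, and endpoints were estimated by linear interpolation. GI50 marks 50% less growth. TGI marks complete inhibition of growth.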

Columns and labels:
Assay in all cases: inhibition of tumour cell growth, NCI panel, 48 h
[1] = system: KM12 colon
[2] = system: OVCAR-5 ovarian
[3] = system: SK-OV-3 ovarian
[4] = system: RPMI-8226 leukemia
[5] = system: SR leukemia
[6] = system: MOLT-4 leukemia
[7] = system: SK-MEL-5 melanoma
[8] = system: SF-268 CNS
[9] = system: HCT-15 colon
[10] = system: TK-10 renal
[11] = system: T-47D breast
[12] = system: MDA-MB-231 breast
[13] = system: A549 NSCLC
[14] = system: UO-31 renal
[15] = system: HS 578T breast
[16] = system: SNB-75 CNS
[17] = system: ACHN renal
[18] = system: SW-620 colon
[19] = system: M14 melanoma
[20] = system: EKVX NSCLC
[21] = system: UACC-257 melanoma
[22] = system: HCC-2998 colon
[23] = system: BT-549 breast
[24] = system: HL-60(TB) leukemia
[25] = system: COLO 205 colon
[26] = system: OVCAR-4 ovarian
[27] = system: SK-MEL-28 melanoma
[28] = system: UACC-62 melanoma
[29] = system: HCT-116 colon
[30] = system: MDA-N
[31] = system: NCI-H522 lung
[32] = system: OVCAR-8 ovarian
[33] = system: 786-0 renal
[34] = system: NCI-H226 lung
[35] = system: PC-3 prostate
[36] = system: MDA-MB-435
[37] = system: HOP-92 NSCLC
[38] = system: CCRF-CEM leukemia
[39] = system: RXF 393 renal
[40] = system: DU-145 prostate
[41] = system: SK-MEL-2 melanoma
[42] = system: CAKI-1 renal
[43] = system: IGROV1 ovarian
[44] = system: NCI-H460 lung
[45] = system: SNB-19 CNS
[46] = system: SF-295 CNS
[47] = system: NCI-H23 lung
[48] = system: OVCAR-3 ovarian
[49] = system: MALME-3M melanoma
[50] = system: LOX IMVI melanoma
[51] = system: K-562 leukemia
[52] = system: HT29 colon
[53] = system: NCI/ADR-RES ovarian
[54] = system: MCF7 breast
[55] = system: SN12C renal
[56] = system: HOP-62 NSCLC
[57] = system: U251 CNS
[58] = system: A498 renal
[59] = system: HOP-18 NSCLC
[60] = system: DMS 273 small cell lung
[61] = system: DLD-1 colon
[62] = system: LXFL 529 NSCLC
[63] = system: SF-539 CNS

Molecule `O=c1cccccc1O` has a TGI [1] greater than 100 µM, a TGI [2] greater than 100 µM and a TGI [3] greater than 100 µM. The TGI [4] was greater than 100 µM, the TGI [5] was greater than 100 µM and the TGI [6] was greater than 100 µM. The TGI [7] was greater than 100 µM, the TGI [8] was greater than 100 µM and the TGI [9] was greater than 100 µM. The TGI [10] was greater than 100 µM, the TGI [11] was greater than 100 µM and the TGI [12] was greater than 100 µM. For the same molecule, the TGI [13] was greater than 100 µM, the TGI [14] was greater than 100 µM and the TGI [15] was greater than 100 µM. The TGI [16] was greater than 100 µM, the TGI [17] was greater than 100 µM and the TGI [18] was greater than 100 µM. For the same molecule, the TGI [19] was greater than 100 µM, the TGI [20] was greater than 100 µM and the TGI [21] was greater than 100 µM. The TGI [22] was greater than 100 µM, the TGI [23] was greater than 100 µM and the TGI [24] was 43.7 µM. It also gave a TGI [25] greater than 100 µM, a TGI [26] greater than 100 µM and a TGI [27] greater than 100 µM. For the same molecule, the TGI [28] was greater than 100 µM, the TGI [29] was greater than 100 µM and the TGI [30] was greater than 100 µM. It also gave a TGI [31] greater than 100 µM, a TGI [32] greater than 100 µM and a TGI [33] greater than 100 µM. For the same molecule, the TGI [34] was greater than 100 µM, the TGI [35] was greater than 100 µM and the TGI [36] was greater than 100 µM. It also gave a TGI [37] greater than 100 µM, a TGI [38] of 82.5 µM and a TGI [39] greater than 100 µM. It also gave a TGI [40] greater than 100 µM, a TGI [41] greater than 100 µM and a TGI [42] greater than 100 µM. It also gave a TGI [43] greater than 100 µM, a TGI [44] greater than 100 µM and a TGI [45] greater than 100 µM. For the same molecule, the TGI [46] was greater than 100 µM, the TGI [47] was greater than 100 µM and the TGI [48] was greater than 100 µM. The TGI [49] was greater than 100 µM, the TGI [50] was greater than 100 µM and the TGI [51] was greater than 100 µM. The TGI [52] was greater than 100 µM, the TGI [53] was greater than 100 µM and the TGI [54] was greater than 100 µM.

Work on `Cc1c(C)c(S(=O)(=O)N(CCCN)OCCCN)c(C)c2c1OC(C)(C)CC2` yielded a TGI [1] of 25.6 µM, a TGI [2] of 25.8 µM and a TGI [3] of 29.8 µM. The TGI [4] was 35.7 µM, the TGI [5] was 33.4 µM and the TGI [6] was 14.9 µM. For the same molecule, the TGI [7] was 29 µM, the TGI [8] was 26.9 µM and the TGI [55] was 28.4 µM. The TGI [9] was 29.3 µM, the TGI [10] was 28 µM and the TGI [11] was 33.5 µM. For the same molecule, the TGI [12] was 17.6 µM, the TGI [13] was 29.6 µM and the TGI [14] was 31.5 µM. The TGI [15] was 29.6 µM, the TGI [16] was 23.4 µM and the TGI [17] was 29.6 µM. For the same molecule, the TGI [18] was 29 µM, the TGI [19] was 27.7 µM and the TGI [20] was 30.4 µM. It also gave a TGI [21] of 27.3 µM, a TGI [22] of 21.2 µM and a TGI [23] of 31.4 µM. The TGI [25] was 32.1 µM, the TGI [26] was 23.6 µM and the TGI [27] was 28.5 µM. The TGI [28] was 28 µM, the TGI [29] was 30 µM and the TGI [30] was 29.2 µM. The TGI [31] was 28.4 µM, the TGI [32] was 29.8 µM and the TGI [33] was 29.4 µM. For the same molecule, the TGI [34] was 28 µM, the TGI [56] was 27.2 µM and the TGI [35] was 24.5 µM. The TGI [36] was 29.6 µM, the TGI [37] was 19.9 µM and the TGI [38] was 27.6 µM. The TGI [39] was 21.4 µM, the TGI [40] was 29.5 µM and the TGI [57] was 24.1 µM. For the same molecule, the TGI [41] was 32.1 µM, the TGI [42] was 30.1 µM and the TGI [43] was 20.3 µM. It also gave a TGI [44] of 30.3 µM, a TGI [45] of 24.9 µM and a TGI [46] of 30.4 µM. For the same molecule, the TGI [47] was 27.9 µM, the TGI [48] was 29.5 µM and the TGI [49] was 27.8 µM. For the same molecule, the TGI [50] was 26.1 µM, the TGI [51] was 29.6 µM and the TGI [52] was 28.4 µM. It also gave a TGI [58] of 26.2 µM, a TGI [53] of 60.1 µM and a TGI [54] of 29.1 µM.

`Oc1cccc2cccnc12` was tested, and the GI50 [1] was 3.04 µM and 14 µM and 5.1 µM, the TGI [1] was greater than 100 µM and the TGI [2] was 21.1 µM and > 100 µM. For the same molecule, the GI50 [3] was 42.2 µM and 46.1 µM and > 100 µM, the TGI [3] was greater than 100 µM and the GI50 [4] was 0.2 µM. The TGI [4] was 1.07 µM and 4.31 µM, the TGI [5] was 23.7 µM and 3.71 µM and the TGI [59] was greater than 100 µM. The TGI [7] was 36.7 µM and 45.2 µM and > 71.7 µM, the GI50 [8] was 4.04 µM and 32.7 µM and 3.29 µM and the TGI [8] was greater than 100 µM. The GI50 [55] was 5.56 µM and 29.8 µM and 4.23 µM, the TGI [55] was greater than 100 µM and the GI50 [9] was 2.04 µM and 5.51 µM and 2.52 µM. For the same molecule, the TGI [9] was greater than 100 µM, the GI50 [10] was 51.5 µM and 8.42 µM and 47.7 µM and the TGI [10] was greater than 100 µM. For the same molecule, the TGI [11] was greater than 100 µM, the TGI [12] was > 28.7 µM and 84 µM and 33.1 µM and the GI50 [13] was 6.17 µM and 16.4 µM and 5.97 µM. It also gave a TGI [13] greater than 100 µM, a TGI [14] greater than 100 µM and a GI50 [15] greater than 100 µM. For the same molecule, the TGI [15] was greater than 100 µM, the GI50 [16] was 44 µM and 18.4 µM and the TGI [16] was greater than 100 µM. The GI50 [17] was 5.98 µM and 23.1 µM and 6 µM, the TGI [17] was greater than 100 µM and the GI50 [18] was 0.904 µM and 3.9 µM and 2.36 µM. For the same molecule, the TGI [18] was greater than 100 µM, the GI50 [19] was 3.01 µM and 24.2 µM and 2.99 µM and the TGI [19] was 35.4 µM and > 100 µM. For the same molecule, the TGI [20] was greater than 100 µM, the TGI [21] was 27.3 µM and > 100 µM and > 27.8 µM and the TGI [22] was 28 µM and > 100 µM and 47.9 µM. For the same molecule, the TGI [23] was greater than 100 µM, the GI50 [25] was 5.58 µM and 19.1 µM and 16.9 µM and the TGI [25] was 40.3 µM and 67.7 µM and > 100 µM. The TGI [60] was 7.98 µM, the GI50 [26] was 6.13 µM and 19.9 µM and 3.37 µM and the TGI [26] was > 87.6 µM and 83.3 µM and > 100 µM. For the same molecule, the GI50 [27] was 16.9 µM and > 100 µM and > 55.5 µM, the TGI [27] was greater than 100 µM and the TGI [28] was 26.8 µM and > 100 µM. The TGI [61] was greater than 100 µM, the GI50 [29] was 1.06 µM and 3.42 µM and 1.46 µM and the TGI [29] was 23.1 µM and > 100 µM. The TGI [62] was greater than 100 µM, the TGI [30] was greater than 100 µM and the GI50 [31] was 0.22 µM and 0.487 µM and 1.92 µM. For the same molecule, the GI50 [32] was 3.39 µM and 14.6 µM and 2.67 µM, the TGI [32] was greater than 100 µM and the TGI [33] was greater than 100 µM. For the same molecule, the GI50 [34] was 8.82 µM and 44.4 µM and 28.6 µM, the TGI [34] was 37.4 µM and > 100 µM and > 84 µM and the GI50 [56] was 4.47 µM and 5.39 µM and 13.5 µM. The TGI [56] was greater than 100 µM, the GI50 [36] was 13.3 µM and 21.5 µM and 5.94 µM and the TGI [36] was greater than 100 µM. The TGI [37] was greater than 100 µM, the GI50 [39] was 13.4 µM and 69.6 µM and 14.6 µM and the TGI [39] was greater than 100 µM. The GI50 [40] was 20.9 µM and 68.8 µM and 18.2 µM, the TGI [40] was greater than 100 µM and the GI50 [57] was 3.32 µM and 23.8 µM and 5.14 µM. The TGI [57] was greater than 100 µM, the GI50 [41] was > 20.7 µM and 8.34 µM and the TGI [41] was greater than 74.5 µM. The TGI [42] was greater than 100 µM, the TGI [43] was 28.9 µM and 24.4 µM and > 100 µM and the GI50 [44] was 1.6 µM and 3.32 µM and 3.85 µM. For the same molecule, the TGI [44] was 23.4 µM and > 100 µM and 21.9 µM, the GI50 [45] was 23.6 µM and 96.4 µM and 38.9 µM and the TGI [45] was greater than 100 µM. For the same molecule, the TGI [46] was greater than 100 µM, the GI50 [47] was 2.49 µM and 13.4 µM and 3.93 µM and the TGI [47] was 18.9 µM and > 100 µM. For the same molecule, the TGI [49] was greater than 100 µM, the GI50 [50] was 1.65 µM and 0.709 µM and 2.29 µM and the TGI [50] was 14.8 µM and > 100 µM. The TGI [51] was 21.7 µM and > 100 µM and > 23.3 µM, the GI50 [52] was 3.53 µM and 13.8 µM and 4.64 µM and the TGI [52] was greater than 100 µM. For the same molecule, the TGI [58] was 27.7 µM and 56.4 µM and > 100 µM, the TGI [53] was 35.4 µM and > 100 µM and > 32 µM and the GI50 [54] was 1.72 µM and 3.31 µM. For the same molecule, the TGI [54] was 5.05 µM and > 31.6 µM, the GI50 [63] was 4.56 µM and 26.9 µM and 4.11 µM and the TGI [63] was 54.1 µM and 81.1 µM and > 100 µM.
